Reference: patent publication US4895835A, “Muramyl peptide derivatives and use thereof” (priority 1987, dated 1990)

Legend:
[1] = Stimulation effect on antibody producing cells (plaque numbers, Cunningham technique); assay type: in vivo, ICR mouse; conditions: for Plaque No.: ICR mouse, SRBC i.v. and compound 500 μg/ml, 0.2 ml i.v., splenic cells after 4 days; for Stimulation index: plaque number relative to control (saline) = 1
Method: (5) Stimulation effect on anti-body precluding cells
A solution of sheep […] (SRBC) in phosphate buffered physiological saline (5×10^7 cells/ml), 0.2 ml was injected into tail intravenous vein of ICR mouse (7 mice per group). At the same time, a solution of a compound of the invention in physiological saline (500 μg/ml), 0.2 ml was similarly injected. After 4 days, lien was picked up from the treated mouse to obtain splenic cells. Plaque numbers were measured by Cunningham technique.

[2] = system: leukemia cells of L-1210 mouse; test: Activation for macrophages: cytostatic rate of intraperitoneal macrophages on leukemia cells; assay type: in vivo; conditions: CDF1 mouse i.p. 500 μg/ml, 0.2 ml; macrophages collected after 4 days; macrophages:L-1210 cells 20:1; 72 hours
Method: (4) Activation for macrophages
A test solution of a compound of the invention in physicological saline (500 μg/ml, 0.2 ml) was intraperioneally injected into CDF1 mouse (one group consisting of mice). Intraperioneal macrophages which were collected after 4 days and leukemia cells of L-1210 mouse were mixed at the cell ratio of 20 and 1. Each 200 μl of the mixture was put on a microplate having 96 holes. After 72 hours, numbers of cells in each holes were counted, and cytostatic rate of the mixture was measured.

BCG killed vaccine = test: Enhancing action on BCG vaccine (adjuvant activity), 24 hours foot-pad test; assay type: in vivo; conditions: ICR mouse; s.c. 0.2 ml mixture of BCG killed vaccine (100 μg/ml) and compound in Freund's incomplete adjuvant (1000 μg/ml); tuberculin 10 μg after 14 days; measured after 24 hours
Method: (1) Enhancing action on BCG vaccine (adjuvant activity)
0.2 ml of an equivalent weight mixture of a solution of BCG killed vaccine in physiological saline (100 μg/ml) and a solution of a compound of the invention in Freund's incomplete adjuvant (1000 μg/ml) was subcutaneously injected to the back of ICR mouse (one group consisting of 7 mice). After 14 days, 10 μg of tuberculin was intradermally injected into the hind foot-pad. Swelling of the foot-pad was measured after 24 hours (24 hours foot-pad test).
The control is the above mentioned mixture excluded a compound of the invention.

E. coli (JC-2) = test: Phylactic effect, E. coli infection; assay type: in vivo; conditions: ICR mouse; compound 500 μg/ml, 0.2 ml i.p. one day before infection i.p. 1×10^7 /mouse; after 7 days of infection
Method: (§1) A solution of a compound of the invention in physiological saline (500 μg/ml), 0.2 ml was intraperitoneally injected into ICR mouse (20 mice per group). After a day, E. coli (JC-2) and Psud. aeruginosa (NCTC 10490) were incubated through intraperitoneal route so as to be at concentration of 1×10^7 /mouse. Survival rate after 7 days of infection was measured.

[3] = system: influenza HA vaccine (A/Bangkok/10/83 strain, H1N1); test: Enhancing effect on influenza HA vaccine (adjuvant activity), ELISA; assay type: in vivo; conditions: CDF1 mouse, compound (100 μg/ml) mixed with influenza HA vaccine (100 CCA/ml)
Method: (3) Enhancing effect on influenza HA vaccine (adjuvant activity)
A compound of the invention was dissolved or suspended in physiological saline (100 μg/ml). Separately, influenza HA vaccine (A/Bangkok/10/83 strain, H1N1) was dissolved in physiological saline (100 CCA/ml). These two solutions were mixed in an equivalent weight to make the test solution. Control is a solution excluded the compound of the invention from the test solution.
The test solution was administered into CDF1 mouse in a similar way to that of the test of enhancing action for hepatitis vaccine as mentioned above, to obtain primary and secondary response sera.

[4] = system: Psud. aeruginosa (NCTC 10490); test: Phylactic effect, Psud. aeruginosa infection; assay type: in vivo; conditions: ICR mouse; compound 500 μg/ml, 0.2 ml i.p. one day before infection i.p. 1×10^7 /mouse; after 7 days of infection
Method: as §1

[5] = system: B type hepatitis vaccine (HBs); test: Enhancing effect on hepatitis vaccine (adjuvant activity), IgG antibody by ELISA; assay type: in vivo; conditions: CDF1 mouse; for Anti HBs-ELISA unit, Primary response serum: i.p. 0.2 ml compound (100 μg/ml) mixed with HBs vaccine, serum at 3 weeks; for Anti HBs-ELISA unit, Secondary response serum: second i.p. injection of 0.2 ml test solution, serum at 2 weeks
Method: (2) Enhancing effect on hepatitis vaccine (adjuvant activity)
A compound of the invention was dissolved or suspended in physiological saline (100 μg/ml), and mixed with a solution of B type hepatitis vaccine (HBs) in physiological saline (100 μg/m) at an equivalent weight ratio to obtain the test solution. A solution excluded the compound of the invention from the test solution was used as control.
The test solution (0.2 ml) was intraperitoneally injected into CDF1 mouse (one group consisting of 10 mice). At 3 weeks after the administration, a blood was taken from the intravenous vein in eyeground of each the mice and centrifuged to obtain serum (primary response serum). Further, 0.2 ml of the test solution was again intraperitoneally injected into each mice, and at 2 weeks stage, serum was separated in the similar way (secondary response serum).
Value for IgG antibody against B type hepatitis virus of the resulting serum was measured by ELISA method.

Meth A fibrosarcomas = test: Antitumour effect, Meth A fibrosarcoma; assay type: in vivo; conditions: BALB/C mouse; s.c. 0.2 ml mixture of Meth A cells (1×10^6 cells/ml) and compound (1,000 μg/ml); after 35 days
Method: Meth A fibrosarcomas were suspended in phosphate buffered physiological saline (1×10^6 cells/ml). Separately, a solution of a compound of the invention in physiological saline was prepared (1,000 μg/ml). An equivalent weight mixture of these two solution (0.2 ml) was subcutaneously injected into BALB/C mouse (20 mice per group). Survival rate after 35 days was measured.

CCCCCCCCCCCCCC(=O)O[C@H](CCCCCCCCCCC)CC(=O)OC[C@H]1O[C@@H](S)[C@H](NC(C)=O)[C@@H](O[C@H](C)C(=O)N[C@@H](C)C(=O)N[C@H](CCC(=O)OC)C(N)=O)[C@@H]1O [Example 8, N-[[2-O-{2-Acetamido-2,3-dideoxy-6-O-[(3R)-3-tetradecanoyloxytetradecanoyl]-1-thio-β-D-glucopyranos-3-yl}-D-lactoyl]]-L-alanyl-D-isoglutamine methyl ester]
Plaque No. [1]: 8.63 ± 7.9 × 10^3 | Stimulation index [1]: 1.8 | Cytostatic rate [2]: 31.6 ± 1.6% | Swelling of Foot-pad (BCG killed vaccine): 51.8 ± 11.0 × 0.01 mm | Survival rate, E. coli (E. coli (JC-2)): 35% | Anti-influenza HA virus ELISA unit, Primary response serum [3]: 2,100 ELISA unit | Anti-influenza HA virus ELISA unit, Secondary response serum [3]: 22,000 ELISA unit | Survival rate, Psud. aeruginosa [4]: 20% | Anti HBs-ELISA unit, Primary response serum [5]: 2,200 ELISA unit | Anti HBs-ELISA unit, Secondary response serum [5]: 105,000 ELISA unit | Survival rate (Meth A fibrosarcomas): 5%

CCCCCCCCCCCCCCCC(=O)O[C@H](CCCCCCCCCCC)CC(=O)OC[C@H]1OC[C@H](NC(C)=O)[C@@H](O[C@H](C)C(=O)N[C@@H](C)C(=O)N[C@H](CCC(=O)OC)C(N)=O)[C@@H]1O [Example 6]
Plaque No. [1]: 6.81 ± 4.8 × 10^3 | Stimulation index [1]: 1.4 | Cytostatic rate [2]: 42.6 ± 3.2% | Swelling of Foot-pad (BCG killed vaccine): 86.4 ± 22.1 × 0.01 mm | Survival rate, E. coli (E. coli (JC-2)): 60% | Anti-influenza HA virus ELISA unit, Primary response serum [3]: 2,500 ELISA unit | Anti-influenza HA virus ELISA unit, Secondary response serum [3]: 30,000 ELISA unit | Survival rate, Psud. aeruginosa [4]: 50% | Anti HBs-ELISA unit, Primary response serum [5]: 6,200 ELISA unit | Anti HBs-ELISA unit, Secondary response serum [5]: 220,000 ELISA unit | Survival rate (Meth A fibrosarcomas): 30%

CCCCCCCCCCCCCC(=O)O[C@H](CCCCCCCCCCC)CC(=O)OC[C@H]1OC(O)[C@H](NC(C)=O)[C@@H](O[C@H](C)C(=O)N[C@@H](C)C(=O)N[C@H](CCC(=O)OC)C(N)=O)[C@@H]1O (stereo partly drawn) [Example 2, N-[[2-O-{2-Acetamido-2,3-dideoxy-6-O-[(3R)-3-tetradecanoyloxytetradecanoyl]-D-glucopyranos-3-yl}-D-lactoyl]]-L-alanyl-D-isoglutamine methyl ester]
Plaque No. [1]: 8.23 ± 7.2 × 10^3 | Stimulation index [1]: 1.7 | Cytostatic rate [2]: 45.2 ± 1.1% | Swelling of Foot-pad (BCG killed vaccine): 57.4 ± 16.3 × 0.01 mm | Survival rate, E. coli (E. coli (JC-2)): 55% | Anti-influenza HA virus ELISA unit, Primary response serum [3]: 3,100 ELISA unit | Anti-influenza HA virus ELISA unit, Secondary response serum [3]: 33,000 ELISA unit | Survival rate, Psud. aeruginosa [4]: 45% | Anti HBs-ELISA unit, Primary response serum [5]: 6,000 ELISA unit | Anti HBs-ELISA unit, Secondary response serum [5]: 195,000 ELISA unit | Survival rate (Meth A fibrosarcomas): 30%

CCCCCCCCCCCCCCCC(=O)O[C@H](CCCCCCCCCCC)CC(=O)OC[C@H]1O[C@@H](S)[C@H](NC(C)=O)[C@@H](O[C@H](C)C(=O)N[C@@H](C)C(=O)N[C@H](CCC(=O)OC)C(N)=O)[C@@H]1O [Example 9, N-[[2-O-{2-Acetamido-2,3-dideoxy-6-O-[(3R)-3-hexadodecanoyloxytetradecanoyl]-1-thio-β-D-glucopyranos-3-yl}-D-lactoyl]]-L-alanyl-D-isoglutamine methyl ester]
Plaque No. [1]: 11.00 ± 10.1 × 10^3 | Stimulation index [1]: 2.3 | Cytostatic rate [2]: 38.2 ± 2.2% | Swelling of Foot-pad (BCG killed vaccine): 49.1 ± 12.0 × 0.01 mm | Survival rate, E. coli (E. coli (JC-2)): 40% | Anti-influenza HA virus ELISA unit, Primary response serum [3]: 1,900 ELISA unit | Anti-influenza HA virus ELISA unit, Secondary response serum [3]: 25,000 ELISA unit | Survival rate, Psud. aeruginosa [4]: 15% | Anti HBs-ELISA unit, Primary response serum [5]: 3,400 ELISA unit | Anti HBs-ELISA unit, Secondary response serum [5]: 150,000 ELISA unit | Survival rate (Meth A fibrosarcomas): 5%
